Test results published in patent US11168086B2, “Methods of synthesizing pyrazine compounds” (Hoffmann-La Roche Inc., priority 2015, dated 2021).

Tested on: HBV
Test: HBV inhibition assay: anti-HBV activity in vitro in HepG2.2.15 cells (extracellular HBV DNA by qPCR)
Format: cell-based
Conditions: Hepatitis B virus, 120 h, five days after compound treatment, extracellular HBV DNA in culture supernatant by qPCR, concentration at which HBV replication is inhibited by 50%
Summary of the method: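 HepG2.2.15 cells (stably carrying HBV genome) treated with half-log serially diluted compounds at 0.5% DMSO final for five days. Extracellular HBV DNA in supernatant quantified by qPCR after Proteinase K digestion; EC50 is concentration giving 50% inhibition of replication.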

Row | Structure (SMILES) | EC50 [µM]
1 | C[C@H]1Cn2ncc(N3CC(C(=O)N4CCC(F)(F)C4)CC3=O)c2CN1C(=O)Nc1cc(F)c(F)c(F)c1 (stereo partly drawn) [Example 398, (6S)-3-[4-(3,3-difluoropyrrolidine-1-carbonyl)-2-oxo-pyrrolidin-1-yl]-6-methyl-N-(3,4,5-trifluorophenyl)-6,7-dihydro-4H-pyrazolo[1,5-a]pyrazine-5-carboxamide] | 0.08
2 | C[C@H]1Cn2ncc(N3CC(C(=O)N(C)c4ncco4)CC3=O)c2CN1C(=O)Nc1cc(F)c(F)c(F)c1 (stereo partly drawn) [Example 399, (6S)-6-methyl-3-[4-[methyl(oxazol-2-yl)carbamoyl]-2-oxo-pyrrolidin-1-yl]-N-(3,4,5-trifluorophenyl)-6,7-dihydro-4H-pyrazolo[1,5-a]pyrazine-5-carboxamide] | 0.019
3 | C[C@H]1Cn2ncc(N3CC(C)(C(=O)N4CCC(F)(F)C4)CC3=O)c2CN1C(=O)Nc1cc(F)c(F)c(F)c1 (stereo partly drawn) [Example 400, (6S)-3-[4-(3,3-difluoropyrrolidine-1-carbonyl)-4-methyl-2-oxo-pyrrolidin-1-yl]-6-methyl-N-(3,4,5-trifluorophenyl)-6,7-dihydro-4H-pyrazolo[1,5-a]pyrazine-5-carboxamide] | 0.094
4 | C[C@H]1Cn2ncc(N3CC(C)(C(=O)N4CCC(F)(F)CC4)CC3=O)c2CN1C(=O)Nc1cc(F)c(F)c(F)c1 (stereo partly drawn) [Example 401, (6S)-3-[4-(4,4-difluoropiperidine-1-carbonyl)-4-methyl-2-oxo-pyrrolidin-1-yl]-6-methyl-N-(3,4,5-trifluorophenyl)-6,7-dihydro-4H-pyrazolo[1,5-a]pyrazine-5-carboxamide] | 0.088
5 | Cc1nnc(C2(C)CC(=O)N(c3cnn4c3CN(C(=O)Nc3cc(F)c(F)c(F)c3)[C@@H](C)C4)C2)o1 (stereo partly drawn) [Example 403, (6S)-6-methyl-3-[4-methyl-4-(5-methyl-1,3,4-oxadiazol-2-yl)-2-oxo-pyrrolidin-1-yl]-N-(3,4,5-trifluorophenyl)-6,7-dihydro-4H-pyrazolo[1,5-a]pyrazine-5-carboxamide] | 0.031
6 | C[C@H]1Cn2ncc(N3CC(C)(c4nnco4)CC3=O)c2CN1C(=O)Nc1cc(F)c(F)c(F)c1 (stereo partly drawn) [Example 404, (6S)-6-methyl-3-[4-methyl-4-(1,3,4-oxadiazol-2-yl)-2-oxo-pyrrolidin-1-yl]-N-(3,4,5-trifluorophenyl)-6,7-dihydro-4H-pyrazolo[1,5-a]pyrazine-5-carboxamide] | 0.042
7 | Cc1noc(C2(C)CC(=O)N(c3cnn4c3CN(C(=O)Nc3cc(F)c(F)c(F)c3)[C@@H](C)C4)C2)n1 (stereo partly drawn) [Example 405, (6S)-6-methyl-3-[4-methyl-4-(3-methyl-1,2,4-oxadiazol-5-yl)-2-oxo-pyrrolidin-1-yl]-N-(3,4,5-trifluorophenyl)-6,7-dihydro-4H-pyrazolo[1,5-a]pyrazine-5-carboxamide] | 0.01
8 | Cc1nc(C2(C)CC(=O)N(c3cnn4c3CN(C(=O)Nc3cc(F)c(F)c(F)c3)[C@@H](C)C4)C2)no1 (stereo partly drawn) [Example 406, (6S)-6-methyl-3-[4-methyl-4-(5-methyl-1,2,4-oxadiazol-3-yl)-2-oxo-pyrrolidin-1-yl]-N-(3,4,5-trifluorophenyl)-6,7-dihydro-4H-pyrazolo[1,5-a]pyrazine-5-carboxamide] | 0.006
9 | C[C@H]1Cn2ncc(N3C[C@@H](c4cnco4)OCC3=O)c2CN1C(=O)Nc1cc(F)c(F)c(F)c1 [Example 407, (6S)-6-methyl-3-[(2S)-2-oxazol-5-yl-5-oxo-morpholin-4-yl]-N-(3,4,5-trifluorophenyl)-6,7-dihydro-4H-pyrazolo[1,5-a]pyrazine-5-carboxamide] | 0.024
10 | Cc1noc(C2CN(c3cnn4c3CN(C(=O)Nc3cc(F)c(F)c(F)c3)[C@@H](C)C4)C(=O)O2)n1 (stereo partly drawn) [Example 408, (6S)-6-methyl-3-[5-(3-methyl-1,2,4-oxadiazol-5-yl)-2-oxo-oxazolidin-3-yl]-N-(3,4,5-trifluorophenyl)-6,7-dihydro-4H-pyrazolo[1,5-a]pyrazine-5-carboxamide] | 0.022
11 | C[C@H]1Cn2ncc(N3CC(c4ccc(Cl)nc4)OC3=O)c2CN1C(=O)Nc1cc(F)c(F)c(F)c1 (stereo partly drawn) [Example 409, (6S)-3-[5-(6-chloro-3-pyridyl)-2-oxo-oxazolidin-3-yl]-6-methyl-N-(3,4,5-trifluorophenyl)-6,7-dihydro-4H-pyrazolo[1,5-a]pyrazine-5-carboxamide] | 0.016
12 | C[C@H]1Cn2ncc(N3CC(c4ccc(F)cn4)OC3=O)c2CN1C(=O)Nc1cc(F)c(F)c(F)c1 (stereo partly drawn) [Example 410, (6S)-3-[5-(5-fluoro-2-pyridyl)-2-oxo-oxazolidin-3-yl]-6-methyl-N-(3,4,5-trifluorophenyl)-6,7-dihydro-4H-pyrazolo[1,5-a]pyrazine-5-carboxamide] | 0.037
13 | C[C@H]1Cn2ncc(N3CC(c4cccc(F)n4)OC3=O)c2CN1C(=O)Nc1cc(F)c(F)c(F)c1 (stereo partly drawn) [Example 411, (6S)-3-[5-(6-fluoro-2-pyridyl)-2-oxo-oxazolidin-3-yl]-6-methyl-N-(3,4,5-trifluorophenyl)-6,7-dihydro-4H-pyrazolo[1,5-a]pyrazine-5-carboxamide] | 0.018
14 | C[C@H]1Cn2ncc(N3CC(c4cnn(C)c4)CC3=O)c2CN1C(=O)Nc1cc(F)c(F)c(F)c1 (stereo partly drawn) [Example 412, (6S)-6-methyl-3-[4-(1-methylpyrazol-4-yl)-2-oxo-pyrrolidin-1-yl]-N-(3,4,5-trifluorophenyl)-6,7-dihydro-4H-pyrazolo[1,5-a]pyrazine-5-carboxamide] | 0.021
15 | C[C@H]1Cn2ncc(N3CC(c4cncnc4)CC3=O)c2CN1C(=O)Nc1cc(F)c(F)c(F)c1 (stereo partly drawn) [Example 413, (6S)-6-methyl-3-(2-oxo-4-pyrimidin-5-yl-pyrrolidin-1-yl)-N-(3,4,5-trifluorophenyl)-6,7-dihydro-4H-pyrazolo[1,5-a]pyrazine-5-carboxamide] | 0.076
16 | C[C@H]1Cn2ncc(N3CC(Nc4ncc(F)cn4)CC3=O)c2CN1C(=O)Nc1cc(F)c(F)c(F)c1 (stereo partly drawn) [Example 414, (6S)-3-[4-[(5-fluoropyrimidin-2-yl)amino]-2-oxo-pyrrolidin-1-yl]-6-methyl-N-(3,4,5-trifluorophenyl)-6,7-dihydro-4H-pyrazolo[1,5-a]pyrazine-5-carboxamide] | 0.017
17 | C[C@H]1Cn2ncc(N3C[C@H](Oc4ncccn4)CC3=O)c2CN1C(=O)Nc1cc(F)c(F)c(F)c1 [Example 415, (6S)-6-methyl-3-[(4R)-2-oxo-4-pyrimidin-2-yloxy-pyrrolidin-1-yl]-N-(3,4,5-trifluorophenyl)-6,7-dihydro-4H-pyrazolo[1,5-a]pyrazine-5-carboxamide] | 0.025
18 | C[C@H]1Cn2ncc(N3Cc4ccnn4CC3=O)c2CN1C(=O)Nc1cc(F)c(F)c(F)c1 [Example 419, (6S)-6-methyl-3-(6-oxo-4,7-dihydropyrazolo[1,5-a]pyrazin-5-yl)-N-(3,4,5-trifluorophenyl)-6,7-dihydro-4H-pyrazolo[1,5-a]pyrazine-5-carboxamide] | 0.071
19 | C[C@H]1Cn2ncc(N3CC4(CCC4)CC3=O)c2CN1C(=O)Nc1cc(F)c(F)c(F)c1 [Example 421, (6S)-6-methyl-3-(7-oxo-6-azaspiro[3.4]octan-6-yl)-N-(3,4,5-trifluorophenyl)-6,7-dihydro-4H-pyrazolo[1,5-a]pyrazine-5-carboxamide] | 0.014
20 | C[C@H]1Cn2ncc(N3CC4(CCC4)C(O)C3=O)c2CN1C(=O)Nc1cc(F)c(F)c(F)c1 (stereo partly drawn) [Example 422, (6S)-3-(8-hydroxy-7-oxo-6-azaspiro[3.4]octan-6-yl)-6-methyl-N-(3,4,5-trifluorophenyl)-6,7-dihydro-4H-pyrazolo[1,5-a]pyrazine-5-carboxamide] | 0.065
21 | C[C@H]1Cn2ncc(N3CC4(CC4)C(O)C3=O)c2CN1C(=O)Nc1cc(F)c(F)c(F)c1 (stereo partly drawn) [Example 424, (6S)-3-(7-hydroxy-6-oxo-5-azaspiro[2.4]heptan-5-yl)-6-methyl-N-(3,4,5-trifluorophenyl)-6,7-dihydro-4H-pyrazolo[1,5-a]pyrazine-5-carboxamide] | 0.044
22 | CC1CCN(c2cnn3c2CN(C(=O)Nc2cc(F)c(F)c(F)c2)[C@@H](C)C3)C(=O)O1 (stereo partly drawn) [Example 425, (6S)-6-methyl-3-(6-methyl-2-oxo-1,3-oxazinan-3-yl)-N-(3,4,5-trifluorophenyl)-6,7-dihydro-4H-pyrazolo[1,5-a]pyrazine-5-carboxamide] | 0.087
23 | CC1CCOC(=O)N1c1cnn2c1CN(C(=O)Nc1cc(F)c(F)c(F)c1)[C@@H](C)C2 (stereo partly drawn) [Example 426, (6S)-6-methyl-3-(4-methyl-2-oxo-1,3-oxazinan-3-yl)-N-(3,4,5-trifluorophenyl)-6,7-dihydro-4H-pyrazolo[1,5-a]pyrazine-5-carboxamide] | 0.029
24 | C[C@H]1Cn2ncc(N3C[C@@H](Oc4ncccn4)[C@H](O)C3=O)c2CN1C(=O)Nc1cc(F)c(F)c(F)c1 [Example 428, (6S)-3-[(3S,4R)-3-hydroxy-2-oxo-4-pyrimidin-2-yloxy-pyrrolidin-1-yl]-6-methyl-N-(3,4,5-trifluorophenyl)-6,7-dihydro-4H-pyrazolo[1,5-a]pyrazine-5-carboxamide] | 0.006
25 | C[C@@H]1[C@@H](Oc2ncccn2)[C@H](O)C(=O)N1c1cnn2c1CN(C(=O)Nc1cc(F)c(F)c(F)c1)[C@@H](C)C2 [Example 436, (6S)-3-[(2R,3R,4S)-4-hydroxy-2-methyl-5-oxo-3-pyrimidin-2-yloxy-pyrrolidin-1-yl]-6-methyl-N-(3,4,5-trifluorophenyl)-6,7-dihydro-4H-pyrazolo[1,5-a]pyrazine-5-carboxamide] | 0.016
26 | C[C@H]1Cn2ncc(N3CC(c4ncccn4)CC3=O)c2CN1C(=O)Nc1cc(F)c(F)c(F)c1 (stereo partly drawn) [Example 437, (6S)-6-methyl-3-(2-oxo-4-pyrimidin-2-yl-pyrrolidin-1-yl)-N-(3,4,5-trifluorophenyl)-6,7-dihydro-4H-pyrazolo[1,5-a]pyrazine-5-carboxamide] | 0.006
